Experimental data from PubChem BioAssay AID330 (DTP/NCI, 2004).
“And” between values parts separate entries of the source, which are not always exact repeats. Equal entries are not always repeated. Inconclusive results and toxic doses are left out.

Test system: P388 leukemia ip, CD2F1 mice, survival T/C
Assay: NCI In Vivo Anticancer Drug Screen. Data for tumor model P388 Leukemia (intraperitoneal) in CD2F1 (CDF1) mice
Settings: endpoint: median survival time, higher = longer survival
Method in brief: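 Mice carrying the transplanted tumor received test compound or vehicle. Survival was recorded in each group, and the value is the treated-group measurement divided by that of the vehicle-treated control group.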

[1] = dose: 100.0 mg/kg/injection, schedule: Q01DX009 (ip), vehicle: saline with Tween-80
[2] = dose: 200.0 mg/kg/injection, schedule: Q01DX009 (ip), vehicle: saline with Tween-80
[3] = dose: 50.0 mg/kg/injection, schedule: Q01DX009 (ip), vehicle: saline
[4] = dose: 100.0 mg/kg/injection, schedule: Q01DX009 (ip), vehicle: saline
[5] = dose: 60.0 mg/kg/injection, schedule: Q01DX005 (ip), vehicle: Klucel (hydroxypropylcellulose) (HPC)
[6] = dose: 50.0 mg/kg/injection, schedule: Q01DX009 (ip), vehicle: saline with Tween-80
[7] = dose: 25.0 mg/kg/injection, schedule: Q01DX009 (ip), vehicle: distilled water + Tween-80
[8] = dose: 100.0 mg/kg/injection, schedule: Q04DX002 (ip), vehicle: saline with Tween-80
[9] = dose: 50.0 mg/kg/injection, schedule: Q01DX005 (ip), vehicle: Klucel (hydroxypropylcellulose) (HPC)
[10] = dose: 100.0 mg/kg/injection, schedule: Q01DX005 (ip), vehicle: Klucel (hydroxypropylcellulose) (HPC)

Cc1c(-c2ccccc2)ccnc1/C=N/NS(=O)(=O)c1ccccc1 was tested, and the T/C (dose: 50.0 mg/kg/injection, schedule: Q01DX009 (ip), vehicle: other) was 103 % of control, the T/C (dose: 100.0 mg/kg/injection, schedule: Q01DX009 (ip), vehicle: other) was 97 % of control and the T/C (dose: 200.0 mg/kg/injection, schedule: Q01DX009 (ip), vehicle: other) was 96 % of control.
For Nc1ccc(S(=O)(=O)c2ccc(NCNc3ccc(S(=O)(=O)c4ccc(N)cc4)cc3)cc2)cc1, the T/C [1] was 94 % of control, the T/C [2] was 91 % of control and the T/C (dose: 400.0 mg/kg/injection, schedule: Q01DX009 (ip), vehicle: saline with Tween-80) was 94 % of control.
For COc1cc(-c2ccc(Nc3ccccc3C(=O)O)c(OC)c2)ccc1Nc1ccccc1C(=O)O, the T/C [3] was 105 % of control, the T/C [4] was 100 % of control and 104 % of control and 109 % of control and the T/C (dose: 200.0 mg/kg/injection, schedule: Q01DX009 (ip), vehicle: saline) was 110 % of control. For the same molecule, the T/C (dose: 400.0 mg/kg/injection, schedule: Q01DX009 (ip), vehicle: saline) was 117 % of control and 124 % of control and 86 % of control.
In the case of O=C1c2ccccc2C(=O)N1Cc1ccc(CCl)s1, the T/C (dose: 15.0 mg/kg/injection, schedule: Q01DX005 (ip), vehicle: saline with Tween-80) is reported as 101 % of control, the T/C (dose: 30.0 mg/kg/injection, schedule: Q01DX005 (ip), vehicle: saline with Tween-80) is reported as 102 % of control and the T/C (dose: 60.0 mg/kg/injection, schedule: Q01DX005 (ip), vehicle: saline with Tween-80) is reported as 100 % of control and 105 % of control. For the same molecule, the T/C (dose: 120.0 mg/kg/injection, schedule: Q01DX005 (ip), vehicle: saline with Tween-80) was 119 % of control and the T/C (dose: 240.0 mg/kg/injection, schedule: Q01DX005 (ip), vehicle: saline with Tween-80) was 112 % of control.
For COC(=O)N1Cc2cc3ccccc3nc2C1C (stereo not drawn), the T/C [5] was 101 % of control, the T/C (dose: 120.0 mg/kg/injection, schedule: Q01DX005 (ip), vehicle: Klucel (hydroxypropylcellulose) (HPC)) was 104 % of control and the T/C (dose: 240.0 mg/kg/injection, schedule: Q01DX005 (ip), vehicle: Klucel (hydroxypropylcellulose) (HPC)) was 109 % of control.
O=C1C(Cl)=C(Sc2nnc3c4ccccc4c4ccccc4c3n2)C(=O)c2ccccc21 was tested, and the T/C [6] was 100 % of control, the T/C [1] was 91 % of control and the T/C [2] was 99 % of control.
N#Cc1ccc(NN=NCCS(=O)CCCl)cc1 (stereo not drawn) was tested, and the T/C (dose: 6.25 mg/kg/injection, schedule: Q01DX009 (ip), vehicle: distilled water + Tween-80) was 100 % of control, the T/C (dose: 12.5 mg/kg/injection, schedule: Q01DX009 (ip), vehicle: distilled water + Tween-80) was 111 % of control and the T/C [7] was 112 % of control.
In the case of CC/C(C)=N/SC(c1ccccc1)(c1ccccc1)c1ccccc1, the T/C [8] is reported as 101 % of control, the T/C (dose: 200.0 mg/kg/injection, schedule: Q04DX002 (ip), vehicle: saline with Tween-80) is reported as 91 % of control and the T/C (dose: 400.0 mg/kg/injection, schedule: Q04DX002 (ip), vehicle: saline with Tween-80) is reported as 89 % of control.
In the case of Cn1nc(-c2ccc(S(=O)(=O)F)cc2)s/c1=N/NC(=O)c1ccccc1, the T/C (dose: 60.0 mg/kg/injection, schedule: Q01DX005 (ip), vehicle: Klucel + Tween-80) is reported as 87 % of control and the T/C (dose: 120.0 mg/kg/injection, schedule: Q01DX005 (ip), vehicle: Klucel + Tween-80) is reported as 92 % of control.
With C=C1C[C@@H](O)C[C@@]2(C)C[C@@H]3OC(=O)C(=C)[C@@H]3C[C@H]12 the T/C (dose: 12.5 mg/kg/injection, schedule: Q01DX009 (ip), vehicle: Klucel (hydroxypropylcellulose) (HPC)) was 99 % of control, the T/C (dose: 25.0 mg/kg/injection, schedule: Q01DX009 (ip), vehicle: Klucel (hydroxypropylcellulose) (HPC)) was 111 % of control and the T/C (dose: 50.0 mg/kg/injection, schedule: Q01DX009 (ip), vehicle: Klucel (hydroxypropylcellulose) (HPC)) was 114 % of control. The T/C (dose: 100.0 mg/kg/injection, schedule: Q01DX009 (ip), vehicle: Klucel (hydroxypropylcellulose) (HPC)) was 114 % of control.
With Cc1c(-c2ccccc2)n(O)c(-c2ccccc2Cl)[n+]1[O-] the T/C [6] was 94 % of control, the T/C [1] was 98 % of control and the T/C [2] was 100 % of control.
With Cc1ccc(NC(=O)N2CCOCC2)cc1NC(=O)N1CCOCC1 the T/C [3] was 100 % of control and the T/C [4] was 91 % of control.
In the case of CCSCCNC(=O)[C@@]1(O)[C@H](O)[C@]2(CC)C=CCN3CC[C@@]4(c5cc([C@@]6(OC(C)=O)C[C@H]7C=C(CC)CN(CCc8c6[nH]c6ccccc86)C7)c(OC)cc5N(C)[C@@H]14)[C@@H]32, the T/C (dose: 0.5 mg/kg/injection, schedule: Q01DX001 (ip), vehicle: water) is reported as 118 % of control, the T/C (dose: 1.0 mg/kg/injection, schedule: Q01DX001 (ip), vehicle: water) is reported as 118 % of control and the T/C (dose: 4.0 mg/kg/injection, schedule: Q01DX001 (ip), vehicle: water) is reported as 165 % of control. The T/C (dose: 8.0 mg/kg/injection, schedule: Q01DX001 (ip), vehicle: water) was 174 % of control.
With CC(=O)Nc1ccc2c(C)ccnc2c1 the T/C (dose: 50.0 mg/kg/injection, schedule: Q01DX009 (ip), vehicle: distilled water + alcohol) was 103 % of control, the T/C (dose: 100.0 mg/kg/injection, schedule: Q01DX009 (ip), vehicle: distilled water + alcohol) was 104 % of control and the T/C (dose: 200.0 mg/kg/injection, schedule: Q01DX009 (ip), vehicle: distilled water + alcohol) was 105 % of control.
For CC1(C)NC2Cc3c([nH]c4ccccc34)C3(C)CCC1CC23 (stereo not drawn), the T/C (dose: 12.5 mg/kg/injection, schedule: Q01DX005 (ip), vehicle: Klucel (hydroxypropylcellulose) (HPC)) was 94 % of control, the T/C (dose: 25.0 mg/kg/injection, schedule: Q01DX005 (ip), vehicle: Klucel (hydroxypropylcellulose) (HPC)) was 94 % of control and the T/C [9] was 89 % of control. For the same molecule, the T/C [10] was 108 % of control.
In the case of COc1cc(/C=C(\C#N)C(N)=O)cc(Br)c1O, the T/C (dose: 50.0 mg/kg/injection, schedule: Q01DX005 (ip), vehicle: saline with Tween-80) is reported as 100 % of control, the T/C (dose: 100.0 mg/kg/injection, schedule: Q01DX005 (ip), vehicle: saline with Tween-80) is reported as 103 % of control and the T/C (dose: 200.0 mg/kg/injection, schedule: Q01DX005 (ip), vehicle: saline with Tween-80) is reported as 100 % of control.
For Cc1nnc(N/N=C/c2ccc([N+](=O)[O-])o2)[nH]c1=O, the T/C (dose: 6.25 mg/kg/injection, schedule: Q01DX005 (ip), vehicle: saline with Tween-80) was 101 % of control and 114 % of control and the T/C (dose: 12.5 mg/kg/injection, schedule: Q01DX005 (ip), vehicle: saline with Tween-80) was 115 % of control and 118 % of control (2×).
For O=c1c2c(-c3cc(-c4ccccc4)nc4[nH]n(-c5ccccc5)c(=O)c34)cc(-c3ccccc3)nc2[nH]n1-c1ccccc1, the T/C [9] was 96 % of control, the T/C [10] was 107 % of control and the T/C (dose: 200.0 mg/kg/injection, schedule: Q01DX005 (ip), vehicle: Klucel (hydroxypropylcellulose) (HPC)) was 96 % of control.
With CN=C(N)N/N=C(\C)c1ccc2sc3ccccc3c2c1 the T/C (dose: 25.0 mg/kg/injection, schedule: Q04DX002 (ip), vehicle: saline with Tween-80) was 104 % of control, the T/C (dose: 50.0 mg/kg/injection, schedule: Q04DX002 (ip), vehicle: saline with Tween-80) was 106 % of control and the T/C [8] was 107 % of control.
With Sc1nc2ccccc2s1.Sc1nc2ccccc2s1.Sc1nc2ccccc2s1.Sc1nc2ccccc2s1.[Cl][Rh][Cl] the T/C [6] was 93 % of control, the T/C [1] was 101 % of control and the T/C [2] was 101 % of control.
With [O-][n+]1cc2ccccc2c2ccccc21 the T/C (dose: 100.0 mg/kg/injection, schedule: Q04DX003 (ip), vehicle: saline) was 100 % of control, the T/C (dose: 200.0 mg/kg/injection, schedule: Q04DX003 (ip), vehicle: saline) was 100 % of control and the T/C (dose: 400.0 mg/kg/injection, schedule: Q04DX003 (ip), vehicle: saline) was 99 % of control.
With CCCCCOCCCCC the T/C (dose: 25.0 mg/kg/injection, schedule: Q01DX005 (ip), vehicle: saline) was 100 % of control, the T/C (dose: 50.0 mg/kg/injection, schedule: Q01DX005 (ip), vehicle: saline) was 99 % of control and the T/C (dose: 100.0 mg/kg/injection, schedule: Q01DX005 (ip), vehicle: saline) was 95 % of control. The T/C (dose: 200.0 mg/kg/injection, schedule: Q01DX005 (ip), vehicle: saline) was 96 % of control.
With CCOC(=O)C1=C(O)C(=O)NC1c1ccccc1 (stereo not drawn) the T/C (dose: 15.0 mg/kg/injection, schedule: Q01DX005 (ip), vehicle: Klucel (hydroxypropylcellulose) (HPC)) was 111 % of control, the T/C (dose: 30.0 mg/kg/injection, schedule: Q01DX005 (ip), vehicle: Klucel (hydroxypropylcellulose) (HPC)) was 102 % of control and the T/C [5] was 102 % of control and 107 % of control.
For COC(=O)C1=C(C(=O)OC)CCC1, the T/C [7] was 97 % of control, the T/C (dose: 50.0 mg/kg/injection, schedule: Q01DX009 (ip), vehicle: distilled water + Tween-80) was 91 % of control and the T/C (dose: 100.0 mg/kg/injection, schedule: Q01DX009 (ip), vehicle: distilled water + Tween-80) was 100 % of control. The T/C (dose: 200.0 mg/kg/injection, schedule: Q01DX009 (ip), vehicle: distilled water + Tween-80) was 105 % of control and the T/C (dose: 400.0 mg/kg/injection, schedule: Q01DX009 (ip), vehicle: distilled water + Tween-80) was 100 % of control.
